Laboratory results reported in paper PMC12627862, “Therapeutic targeting of endothelial calcium signaling accelerates the resolution of lung injury” (Signal Transduction and Targeted Therapy, 2025).
Where two headings read alike, the source gives them in different places. Starred links: 1 amine or outer side, 2 acyl side, 3 side chain; linkers in the order of their positions; H or OH if unused. Positions of bridges follow the written chain, without caps; N, C: chain ends. Non-standard residues stand in square brackets, D forms with d. Residues, ends and D or L forms follow the SMILES beside them. ξ: configuration not given here. X2 = C[C@@](CCCCC=[*:3])(N[*:1])C(=O)[*:2]; Oic = O=C(O)[C@@H]1C[C@@H]2CCCC[C@@H]2N1; GABOB(3R) = O=C(C[C@@H](O)CN[*:1])[*:2]; d(tBuAla) = CC(C)(C)C[C@@H](N)C(=O)O; dVal(3-OH) = CC(C)(O)[C@@H](N)C(=O)O; tBuAla = CC(C)(C)C[C@H](N)C(=O)O; ξVal(3-OH) = CC(C)(O)C(N)C(=O)O; R5 = C=CCCC[C@@](C)(N)C(=O)O; X1 = O=C(CC(O)CN[*:1])[*:2]; 4Amb = NCc1ccc(C(=O)O)cc1

Columns and labels:
[1] = tested on: human primary microvascular lung endothelial cells (HLMVECs); assay: Peptide uptake in endothelial cells; type: cell-based
Procedure: We next analyzed the cell-penetrating properties of the selected compounds, hereafter referred to as vascular therapeutics (VT). The rate of uptake of 5’6-FAM (fluorescein)-labeled compounds by human primary microvascular lung endothelial cells (HLMVECs) was determined via confocal fluorescence live-cell imaging. FAM-labeled Myr-EBIN[13] and fluorescein alone were used as positive and negative controls, respectively. The t½ uptake and maximal uptake were determined from changes in the integrated fluorescence intensity over a 30 min period (Fig. 2a and Supplementary Fig. 1a). […] Like Myr-EBIN, compounds VT-107, -108 and -109 presented the highest uptake rates of 92.5 ± 5.0%, 82.5 ± 2.8% and 94.7 ± 4.9%, respectively, whereas the linear compound VT-101 was taken up less efficiently, with an average uptake of 58.4 ± 2.7% (Fig. 2a). […] The t½ uptake, however, varied between the tested compounds (Fig. 2b). The stapled compounds presented the shortest t½ uptake, whereas the linear compounds presented the longest t½ (Fig. 2b).
Peptide uptake in endothelial cells. The rate of peptide uptake by primary human microvascular endothelial cells was measured using 5’6FAM (fluorescein)-labeled peptides and confocal fluorescence live-cell imaging, with fluorescein alone used as a negative control. Changes in intracellular fluorescence for each peptide were monitored over time, and saponin, a detergent, was added at the end of the experiment to induce full uptake of the tested peptides by endothelial cells. The fluorescence intensity inside the cells was tracked over time, and the half-time uptake (t1/2) and maximum uptake were calculated.

[2] = tested on: Pseudomonas aeruginosa; assay: I.t. P. aeruginosa-induced pneumonia; type: in vivo, mouse
Excerpt: Most ARDS cases arise secondary to pneumonia, in which infectious agents directly target the alveolar epithelium. Damage to these epithelial cells disrupts the integrity of the alveolar–capillary barrier, leading to protein-rich pulmonary edema and widespread inflammation, two hallmark features of diffuse alveolar damage. Because endothelial barrier disruption is a downstream consequence in this context, we also evaluated the benefits of VT-109 treatment in a model of Pseudomonas aeruginosa–induced lung injury, the most commonly acquired hospital-associated pneumonia. Mice were infected with a sublethal intratracheal dose of 5 × 10^5 CFU Pseudomonas aeruginosa and treated with a moderately efficacious dose of VT-109 (250 nmol/kg bw) at 5 hours post-challenge. The lung tissues were collected at 24 and 48 hours for histopathological analysis of acute lung injury, neutrophil influx, and bacterial counts in BALF (Fig. 5k–n and Supplementary Fig. 4j).
Mice (CD1) were anesthetized by intraperitoneal injection of xylazine and positioned supine on a sterile surgical surface. A small midline incision was made in the neck to expose the trachea. GFP-expressing Pseudomonas aeruginosa (PA) was cultured overnight in LB broth supplemented with carbenicillin (100 µg/mL). A total volume of 30 µL PBS containing 0.5 × 10⁶ colony-forming units (CFU) was injected directly into the trachea using a sterile 28G insulin syringe. Following intratracheal instillation, mice received VT-109 (250 nmol/kg body weight) or vehicle by IV at 5- and 24-hours post-infection. Lung tissues were collected at 24 and 48 hours to assess treatment effects. The left lung was inflated with fixative and harvested for histological analysis, while the right lung was collected for bacterial quantification. For CFU analysis, the right lung was homogenized in 1 mL of sterile PBS using a bead-based tissue homogenizer. Homogenates were serially diluted and plated on LB agar containing carbenicillin (100 µg/mL). Plates were incubated overnight at 37 °C, and CFUs were counted the following day. […]

[3] = tested on: splenocytes from CD1 mice; assay: Cytokine release by immune cells in vitro; type: cell-based, mouse; settings: 2 µg/mL LPS for 2 hours, VT-109 200 nM and 1 µM
Procedure: VT-109’s effect on cytokine release by immune cells in vitro. Freshly isolated splenocytes from CD1 mice were treated with 2 µg/mL LPS for 2 hours. Two different concentrations of VT-109 (200 nM and 1 µM) were tested, and the cells were treated concurrently with LPS. Untreated splenocytes served as the control. After the 2-hour incubation, MCP-1, TNF-α, KC, and IL-6 levels were measured in the growth media using mouse multiplexed ELISA array. Data are expressed as pg/mL.

Row | SMILES | uptake, percentage of the maximal values obtained following saponin treatment ([1]; 5’6-FAM-labeled compounds, HLMVECs, confocal live-cell imaging over 30 min, mean ± SEM, n = 16–45 cells per group) | half-time uptake t1/2 ([1]; 5’6-FAM-labeled compounds, HLMVECs, confocal live-cell imaging, n = 3 independent experiments) | penetration of the cell membrane ([1]; 5’6-FAM-labeled compounds, HLMVECs, no cell internalization signal) | half-time uptake t1/2 [1] | penetration of the cell membrane [1] | neutrophils in the lung tissues ([2]; 5 × 10^5 CFU i.t., 250 nmol/kg bw at 5 hours post-challenge, 24 and 48 hours) | lung injury (histopathology) ([2]; 5 × 10^5 CFU i.t., 250 nmol/kg bw, 24 and 48 hours) | bacterial counts ([2]; both time points, did not reach statistical significance) | cytokine production by immune cells in vitro (MCP-1, TNFα, KC, IL-6) [3]
1 | CC(C)(C)C[C@@H]1NC(=O)[C@](C)(NC(=O)c2ccc(CNC(=O)[C@H](N)C(C)(C)O)cc2)CCC/C=C\CCCC[C@@](C)(C(=O)N[C@H](CC(C)(C)C)C(=O)O)NC(=O)CC(O)CNC(=O)[C@@H]2C[C@@H]3CCCC[C@@H]3N2C1=O (stereo partly drawn) [compound 108, (2R)-2-((8S,18R,21S,23aS,27aS,28aS,Z)-18-(4-(((R)-2-amino-3-hydroxy-3-methylbutanamido)methyl)benzamido)-4-hydroxy-8,18-dimethyl-21-neopentyl-1,6,19,22-tetraoxo-1,2,3,4,5,6,7,8,9,10,11,12,15,16,17,18,19,20,21,22,23a,24,25,26,27,27a,28,28a-octacosahydro-[1,4,7,12]tetraazacyclotetracosino[4,5-a]indole-8-carboxamido)-4,4-dimethylpentanoic acid] (H-[dVal(3-OH)][4Amb][R5][tBuAla][Oic][X1][X2][d(tBuAla)]-OH; staple (Z) 3-7) | 82.5 ± 2.8% | 0.36 ± 0.12 min | able to penetrate the cell membrane without the addition of a cell internalization signal |  |  |  |  |  | 
2 | CC(C)(C)C[C@@H]1NC(=O)C[C@@H](O)CNC(=O)[C@@H]2C[C@@H]3CCCC[C@@H]3N2C(=O)[C@H](CC(C)(C)C)NC(=O)c2ccc(cc2)CNC(=O)C(C(C)(C)O)NC(=O)[C@@H](Cc2ccccc2)NC1=O (stereo partly drawn) [compound 109, (1^2S,1^3aS,1^7aS,3S,10S,13R,16S,20R)-13-benzyl-20-hydroxy-10-(2-hydroxypropan-2-yl)-3,16-dineopentyl-1^2,1^3,1^3a,1^4,1^5,1^6,1^7,1^7a-octahydro-1^1H-4,8,11,14,17,22-hexaaza-1(1,2)-indola-6(1,4)-benzenacyclotricosaphane-2,5,9,12,15,18,23-heptaone.] (cyclo([4Amb][tBuAla][Oic][GABOB(3R)][tBuAla][dF][ξVal(3-OH)])) |  |  |  | 3.42 ± 0.01 min | able to penetrate the cell membrane without the addition of a cell internalization signal | far fewer neutrophils | appeared uninjured | modest reduction | nor did it directly alter cytokine production
